Laboratory results as given in patent US20230085307A1, “PYRIDAZINONE COMPOUND AND HERBICIDE” (NISSAN CHEMICAL CORPORATION, priority 2019, published 2023).

Columns and labels:
barnyard grass [1] = assay: Test Example 3: herbicidal effect by foliage application, Wagner pot (Table 18, symbol H); type: in vivo, barnyard grass (Echinochloa crus-galli); details: 320 g/ha
Method in brief: (§1)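 Plants were sown in alluvial soil held under 0.1–0.5 cm standing water and grown 14 days in a greenhouse at 25–30 °C. An emulsifiable formulation, water-diluted to the set dose, was then sprayed onto the foliage, and effects were scored three weeks later using previously defined criteria.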

green foxtail [2] = assay: Test Example 5: herbicidal effect by foliage application, plastic box (Table 20, symbol G); type: in vivo, green foxtail (Setaria viridis); details: foliage application, 320 g/ha, three weeks after application
Method in brief: (§2)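 Sow seeds spot-wise in sterilized diluvial soil; cover with ~1.5 cm soil. Grow 14 days in greenhouse, 25° C. to 30° C. Spray foliage with emulsion diluted to predetermined amount. Rate effect after 3 weeks.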

windgrass [3] = assay: Test Example 5: herbicidal effect by foliage application, plastic box (Table 20, symbol L); type: in vivo, windgrass (Apera spica-venti); details: foliage application, 320 g/ha, three weeks after application
Method in brief: as §2

chickweed [4] = assay: Test Example 5: herbicidal effect by foliage application, plastic box (Table 20, symbol P); type: in vivo, common chickweed (Stellaria media); details: foliage application, 320 g/ha, three weeks after application
Method in brief: as §2

barnyard grass [5] = assay: Test Example 4: herbicidal effect by soil treatment (Table 19, symbol H); type: in vivo, barnyard grass (Echinochloa crus-galli); details: amount of applied herbicide 320 g/ha
Method in brief: (§3)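 Applied as a water-diluted emulsion, the compound was sprayed onto soil covering newly sown seeds. Evaluation came three weeks after application, in a greenhouse held at 25° C. to 30° C.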

persian speedwell [6] = assay: Test Example 4: herbicidal effect by soil treatment (Table 19, symbol R); type: in vivo, Persian speedwell (Veronica persica); details: amount of applied herbicide 320 g/ha
Method in brief: as §3

Italian ryegrass [7] = assay: Test Example 4: herbicidal effect by soil treatment (Table 19, symbol K); type: in vivo, Italian ryegrass (Lolium multiflorum); details: amount of applied herbicide 320 g/ha
Method in brief: as §3

chickweed [8] = assay: Test Example 4: herbicidal effect by soil treatment (Table 19, symbol P); type: in vivo, common chickweed (Stellaria media); details: amount of applied herbicide 320 g/ha
Method in brief: as §3

lambsquarters [9] = assay: Test Example 4: herbicidal effect by soil treatment (Table 19, symbol O); type: in vivo, lambsquarters (Chenopodium album); details: amount of applied herbicide 320 g/ha
Method in brief: as §3

southern crabgrass [10] = assay: Test Example 4: herbicidal effect by soil treatment (Table 19, symbol F); type: in vivo, southern crabgrass (Digitaria ciliaris); details: amount of applied herbicide 320 g/ha
Method in brief: as §3

redroot pigweed [11] = assay: Test Example 5: herbicidal effect by foliage application, plastic box (Table 20, symbol N); type: in vivo, redroot pigweed (Amaranthus retroflexus); details: foliage application, 320 g/ha, three weeks after application
Method in brief: as §2

velvetleaf [12] = assay: Test Example 5: herbicidal effect by foliage application, plastic box (Table 20, symbol M); type: in vivo, velvetleaf (Abutilon theophrasti); details: foliage application, 320 g/ha, three weeks after application
Method in brief: as §2

velvetleaf [13] = assay: Test Example 4: herbicidal effect by soil treatment (Table 19, symbol M); type: in vivo, velvetleaf (Abutilon theophrasti); details: amount of applied herbicide 320 g/ha
Method in brief: as §3

wild oat [14] = assay: Test Example 5: herbicidal effect by foliage application, plastic box (Table 20, symbol I); type: in vivo, wild oat (Avena fatua); details: foliage application, 320 g/ha, three weeks after application
Method in brief: as §2

windgrass [15] = assay: Test Example 4: herbicidal effect by soil treatment (Table 19, symbol L); type: in vivo, windgrass (Apera spica-venti); details: amount of applied herbicide 320 g/ha
Method in brief: as §3

barnyard grass [16] = assay: Test Example 5: herbicidal effect by foliage application, plastic box (Table 20, symbol H); type: in vivo, barnyard grass (Echinochloa crus-galli); details: foliage application, 320 g/ha, three weeks after application
Method in brief: as §2

blackgrass [17] = assay: Test Example 5: herbicidal effect by foliage application, plastic box (Table 20, symbol J); type: in vivo, blackgrass (Alopecurus myosuroides); details: foliage application, 320 g/ha, three weeks after application
Method in brief: as §2

redroot pigweed [18] = assay: Test Example 4: herbicidal effect by soil treatment (Table 19, symbol N); type: in vivo, redroot pigweed (Amaranthus retroflexus); details: amount of applied herbicide 320 g/ha
Method in brief: as §3

rice flat sedge = assay: Test Example 3: herbicidal effect by foliage application, Wagner pot (Table 18, symbol E); type: in vivo, rice flat sedge (Cyperus iria); details: 320 g/ha
Method in brief: as §1

green foxtail [19] = assay: Test Example 4: herbicidal effect by soil treatment (Table 19, symbol G); type: in vivo, green foxtail (Setaria viridis); details: amount of applied herbicide 320 g/ha
Method in brief: as §3

blackgrass [20] = assay: Test Example 4: herbicidal effect by soil treatment (Table 19, symbol J); type: in vivo, blackgrass (Alopecurus myosuroides); details: amount of applied herbicide 320 g/ha
Method in brief: as §3

wild oat [21] = assay: Test Example 4: herbicidal effect by soil treatment (Table 19, symbol I); type: in vivo, wild oat (Avena fatua); details: amount of applied herbicide 320 g/ha
Method in brief: as §3

Chinese sprangletop = assay: Test Example 3: herbicidal effect by foliage application, Wagner pot (Table 18, symbol D); type: in vivo, chinese sprangletop (Leptochloa chinensis); details: 320 g/ha
Method in brief: as §1

Italian ryegrass [22] = assay: Test Example 5: herbicidal effect by foliage application, plastic box (Table 20, symbol K); type: in vivo, Italian ryegrass (Lolium multiflorum); details: foliage application, 320 g/ha, three weeks after application
Method in brief: as §2

persian speedwell [23] = assay: Test Example 5: herbicidal effect by foliage application, plastic box (Table 20, symbol R); type: in vivo, Persian speedwell (Veronica persica); details: foliage application, 320 g/ha, three weeks after application
Method in brief: as §2

southern crabgrass [24] = assay: Test Example 5: herbicidal effect by foliage application, plastic box (Table 20, symbol F); type: in vivo, southern crabgrass (Digitaria ciliaris); details: foliage application, 320 g/ha, three weeks after application
Method in brief: as §2

lambsquarters [25] = assay: Test Example 5: herbicidal effect by foliage application, plastic box (Table 20, symbol O); type: in vivo, lambsquarters (Chenopodium album); details: foliage application, 320 g/ha, three weeks after application
Method in brief: as §2

## CCCC(=O)Oc1c(C)nn(C)c(=O)c1-c1c(-c2ccc(F)cc2OC)sc2ccccc12 [1-056]
Barnyard grass [1]
  herbicidal effect on H (barnyard grass), rating 0-5: 4 (Herbicidal rate of 70% or more and less than 90%)
Green foxtail [2]
  herbicidal effect grade, G: green foxtail: 5 (Herbicidal rate of 90% or more (almost completely withered))
Windgrass [3]
  herbicidal effect grade, L: windgrass: 5 (Herbicidal rate of 90% or more (almost completely withered))
Chickweed [4]
  herbicidal effect grade, P: chickweed: 5 (Herbicidal rate of 90% or more (almost completely withered))
Barnyard grass [5]
  herbicidal effect rating, H: barnyard grass: 3 (Herbicidal rate of 40% or more and less than 70%)
Persian speedwell [6]
  herbicidal effect rating, R: persian speedwell: 4 (Herbicidal rate of 70% or more and less than 90%)
Italian ryegrass [7]
  herbicidal effect rating, K: Italian ryegrass: 0 (Herbicidal rate of 5% or less (almost no effect))
Chickweed [8]
  herbicidal effect rating, P: chickweed: 3 (Herbicidal rate of 40% or more and less than 70%)
Lambsquarters [9]
  herbicidal effect rating, O: lambsquarters: 3 (Herbicidal rate of 40% or more and less than 70%)
Southern crabgrass [10]
  herbicidal effect rating, F: southern crabgrass: 3 (Herbicidal rate of 40% or more and less than 70%)
Redroot pigweed [11]
  herbicidal effect grade, N: redroot pigweed: 3 (Herbicidal rate of 40% or more and less than 70%)
Velvetleaf [12]
  herbicidal effect grade, M: velvetleaf: 4 (Herbicidal rate of 70% or more and less than 90%)
Velvetleaf [13]
  herbicidal effect rating, M: velvetleaf: 0 (Herbicidal rate of 5% or less (almost no effect))
Wild oat [14]
  herbicidal effect grade, I: wild oat: 4 (Herbicidal rate of 70% or more and less than 90%)
Windgrass [15]
  herbicidal effect rating, L: windgrass: 5 (Herbicidal rate of 90% or more (almost completely withered))
Barnyard grass [16]
  herbicidal effect grade, H: barnyard grass: 4 (Herbicidal rate of 70% or more and less than 90%)
Blackgrass [17]
  herbicidal effect grade, J: blackgrass: 4 (Herbicidal rate of 70% or more and less than 90%)
Redroot pigweed [18]
  herbicidal effect rating, N: redroot pigweed: 5 (Herbicidal rate of 90% or more (almost completely withered))
Rice flat sedge
  herbicidal effect on E (rice flat sedge), rating 0-5: 5 (Herbicidal rate of 90% or more (almost completely withered))
Green foxtail [19]
  herbicidal effect rating, G: green foxtail: 5 (Herbicidal rate of 90% or more (almost completely withered))
Blackgrass [20]
  herbicidal effect rating, J: blackgrass: 1 (Herbicidal rate of 5% or more and less than 20%)
Wild oat [21]
  herbicidal effect rating, I: wild oat: 3 (Herbicidal rate of 40% or more and less than 70%)
Chinese sprangletop
  herbicidal effect on D (Chinese sprangletop), rating 0-5: 2 (Herbicidal rate of 20% or more and less than 40%)
Italian ryegrass [22]
  herbicidal effect grade, K: Italian ryegrass: 1 (Herbicidal rate of 5% or more and less than 20%)
Persian speedwell [23]
  herbicidal effect grade, R: persian speedwell: 3 (Herbicidal rate of 40% or more and less than 70%)
Southern crabgrass [24]
  herbicidal effect grade, F: southern crabgrass: 5 (Herbicidal rate of 90% or more (almost completely withered))
Lambsquarters [25]
  herbicidal effect grade, O: lambsquarters: 2 (Herbicidal rate of 20% or more and less than 40%)
